Measurements: patent US20230117034A1, “PYRAZOLOTRIAZINES” (Bayer Aktiengesellschaft, priority 2019, published 2023)

Legend:
CDK9/CycT1 = target: T1, CDK9/CycT1 (Homo sapiens, UniProt P50750); test: CDK9/CycT1 high ATP kinase assay (TR-FRET, 2 mM ATP); format: biochemical; conditions: 2 mM ATP (high ATP); median; read-out: CDK9/CyclinT1, 2 mM ATP (high ATP), IC50 (median)
T1 construct: Recombinant full-length His-tagged human CDK9 and CycT1; purchased Life Technologies PV4131; host or cells: insect cells
T1 sequence (P50750 whole entry): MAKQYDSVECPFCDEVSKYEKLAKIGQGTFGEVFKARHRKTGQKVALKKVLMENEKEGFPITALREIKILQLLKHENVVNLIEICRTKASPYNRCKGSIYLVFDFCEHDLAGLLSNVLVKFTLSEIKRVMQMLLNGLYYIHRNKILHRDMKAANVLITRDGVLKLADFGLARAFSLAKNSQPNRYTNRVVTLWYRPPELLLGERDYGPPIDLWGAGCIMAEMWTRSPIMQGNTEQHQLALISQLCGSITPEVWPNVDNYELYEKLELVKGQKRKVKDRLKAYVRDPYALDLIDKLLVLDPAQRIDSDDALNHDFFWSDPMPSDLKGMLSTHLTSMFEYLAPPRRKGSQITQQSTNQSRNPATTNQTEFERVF
T1 sequence (O60563 whole entry partner): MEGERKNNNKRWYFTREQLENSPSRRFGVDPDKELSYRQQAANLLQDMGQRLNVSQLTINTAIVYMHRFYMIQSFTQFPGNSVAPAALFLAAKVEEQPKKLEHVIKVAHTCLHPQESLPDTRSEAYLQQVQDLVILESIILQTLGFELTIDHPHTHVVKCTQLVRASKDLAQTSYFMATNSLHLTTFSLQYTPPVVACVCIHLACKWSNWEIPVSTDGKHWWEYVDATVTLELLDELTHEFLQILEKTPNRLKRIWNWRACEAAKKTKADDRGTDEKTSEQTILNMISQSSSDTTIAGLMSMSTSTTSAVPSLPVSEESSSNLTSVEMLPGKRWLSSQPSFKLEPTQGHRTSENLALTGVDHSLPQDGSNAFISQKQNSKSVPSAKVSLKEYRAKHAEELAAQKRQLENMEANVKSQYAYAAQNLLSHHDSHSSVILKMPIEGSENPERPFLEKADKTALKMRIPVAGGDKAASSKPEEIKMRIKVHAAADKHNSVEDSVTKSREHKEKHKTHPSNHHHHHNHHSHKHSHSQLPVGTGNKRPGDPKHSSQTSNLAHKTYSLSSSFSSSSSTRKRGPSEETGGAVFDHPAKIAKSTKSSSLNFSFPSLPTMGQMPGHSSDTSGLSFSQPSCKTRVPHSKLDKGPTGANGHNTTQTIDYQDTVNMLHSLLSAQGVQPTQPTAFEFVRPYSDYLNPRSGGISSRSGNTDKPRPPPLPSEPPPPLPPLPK
Outline: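 Full-length His-tagged human CDK9/CycT1 (insect cell, ~0.5 μg/mL) preincubated 15 min at 22 °C with compound in Tris pH 8.0, MgCl2, DTT buffer before reaction with biotinylated peptide substrate at high ATP (2 mM).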

[1] = system: BRCA1 mRNA expression in MDA-MB-231 cells; test: qRT-PCR assay: BRCA1 mRNA expression in MDA-MB-231; format: cell-based, human; conditions: Homo sapiens, MDA-MB-231, Inhibition of BRCA1 mRNA expression in MDA-MB-231 cells; median; read-out: RTqPCR-MDA-MB-231, IC50, BRCA1 (median)
Outline: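 GAPDH-normalised RT-qPCR measures the transcript after 24 h continuous compound treatment of cells seeded at 200,000/well one day earlier.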

With `Fc1ccc2[nH]c(CNc3nc(N4CCOCC4)nc4c([C@@H]5CC5(F)F)cnn34)nc2c1` (single isomer, unassigned) [Example 315, 8-[(1R or S)-2,2-difluorocyclopropyl]-N-[(5-fluoro-1H-benzimidazol-2-yl)methyl]-2-(morpholin-4-yl)pyrazolo[1,5-a][1,3,5]triazin-4-amine] the IC50 (CDK9/CycT1) was greater than 20000 nM and the IC50 [1] was 75.3 nM.
Compound `N[C@H]1CCN(c2nc(NCc3nc4ccccc4[nH]3)n3ncc(Br)c3n2)C1` [Example 245, 2-[(3S)-3-aminopyrrolidin-1-yl]-N-[(1H-benzimidazol-2-yl)methyl]-8-bromopyrazolo[1,5-a][1,3,5]triazin-4-amine] has an IC50 (CDK9/CycT1) greater than 20000 nM and an IC50 [1] of 7.35 nM.
For `CN[C@H]1CCN(c2nc(NCc3nc4ccccc4[nH]3)n3ncc(Br)c3n2)C1` [Example 252, N-[(1H-benzimidazol-2-yl)methyl]-8-bromo-2-[(3S)-3-(methylamino)pyrrolidin-1-yl]pyrazolo[1,5-a][1,3,5]triazin-4-amine], the IC50 (CDK9/CycT1) was greater than 20000 nM and the IC50 [1] was 10.2 nM.
In the case of `CN1CCN(c2nc(NCc3nc4ccccc4[nH]3)n3ncc(C4CC4)c3n2)CC1` [Example 246, N-[(1H-benzimidazol-2-yl)methyl]-8-cyclopropyl-2-(4-methylpiperazin-1-yl)pyrazolo[1,5-a][1,3,5]triazin-4-amine], the IC50 (CDK9/CycT1) is reported as greater than 20000 nM and the IC50 [1] is reported as 10.3 nM.
With `Fc1ccc2[nH]c(CNc3nc(N4CCOCC4)nc4c(C5CC5(F)F)cnn34)nc2c1` (single isomer, unassigned) [Example 314, 8-[(1R or S)-2,2-difluorocyclopropyl]-N-[(5-fluoro-1H-benzimidazol-2-yl)methyl]-2-(morpholin-4-yl)pyrazolo[1,5-a][1,3,5]triazin-4-amine] the IC50 (CDK9/CycT1) was greater than 20000 nM and the IC50 [1] was 35.7 nM.
With `COc1cccc2[nH]c(CNc3nc(N4CCOCC4)nc4c(CC(F)(F)F)cnn34)nc12` [Example 277, N-[(4-methoxy-1H-benzimidazol-2-yl)methyl]-2-(morpholin-4-yl)-8-(2,2,2-trifluoroethyl)pyrazolo[1,5-a][1,3,5]triazin-4-amine] the IC50 (CDK9/CycT1) was greater than 20000 nM and the IC50 [1] was 5.42 nM.
`N[C@H]1[C@@H]2C[C@H]1CN(c1nc(NCc3nc4ccccc4[nH]3)n3ncc(Br)c3n1)C2` [Example 288, 2-[(1R,5S,6r)-6-amino-3-azabicyclo[3.1.1]heptan-3-yl]-N-[(1H-benzimidazol-2-yl)methyl]-8-bromopyrazolo[1,5-a][1,3,5]triazin-4-amine] showed an IC50 (CDK9/CycT1) greater than 20000 nM and an IC50 [1] of 2.69 nM.
Compound `Brc1cnn2c(NCc3nc4c([nH]3)CCCC4)nc(N3CCOCC3)nc12` [Example 21, 8-bromo-2-(morpholin-4-yl)-N-[(4,5,6,7-tetrahydro-1H-benzimidazol-2-yl)methyl]pyrazolo[1,5-a][1,3,5]triazin-4-amine] has an IC50 (CDK9/CycT1) greater than 20000 nM and an IC50 [1] of 31.8 nM.
`NC1CCN(c2nc(NCc3nc4ccccc4[nH]3)n3ncc(Br)c3n2)CC1` [Example 256, 2-(4-aminopiperidin-1-yl)-N-[(1H-benzimidazol-2-yl)methyl]-8-bromopyrazolo[1,5-a][1,3,5]triazin-4-amine] showed an IC50 (CDK9/CycT1) greater than 20000 nM and an IC50 [1] of 6.46 nM.
For `Fc1cccc2[nH]c(CNc3nc(N4CCOCC4)nc4c(CC(F)(F)F)cnn34)nc12` [Example 303, N-[(4-fluoro-1H-benzimidazol-2-yl)methyl]-2-(morpholin-4-yl)-8-(2,2,2-trifluoroethyl)pyrazolo[1,5-a][1,3,5]triazin-4-amine], the IC50 (CDK9/CycT1) was greater than 20000 nM and the IC50 [1] was 4.79 nM.
Work on `Fc1ccc2[nH]c(CNc3nc(N4CCOCC4)nc4c(C5CC5(F)F)cnn34)nc2c1F` (stereo not drawn) [Example 278, N-[(4,5-difluoro-1H-benzimidazol-2-yl)methyl]-8-(2,2-difluorocyclopropyl)-2-(morpholin-4-yl)pyrazolo[1,5-a][1,3,5]triazin-4-amine] yielded an IC50 (CDK9/CycT1) greater than 20000 nM and an IC50 [1] of 3.89 nM.
In the case of `N[C@@H]1[C@@H]2C[C@H]1CN(c1nc(NCc3nc4ccccc4[nH]3)n3ncc(Br)c3n1)C2` [Example 289, 2-[(1R,5S,6s)-6-amino-3-azabicyclo[3.1.1]heptan-3-yl]-N-[(1H-benzimidazol-2-yl)methyl]-8-bromopyrazolo[1,5-a][1,3,5]triazin-4-amine], the IC50 (CDK9/CycT1) is reported as greater than 20000 nM and the IC50 [1] is reported as 2.91 nM.
Compound `CC1CN(C)CCN1c1nc(NCc2nc3ccccc3[nH]2)n2ncc(Br)c2n1` (single isomer, unassigned; enantiomer 1) [Example 260, N-(1H-benzimidazol-2-ylmethyl)-8-bromo-2-[(2R or S)-2,4-dimethylpiperazin-1-yl]pyrazolo[1,5-a][1,3,5]triazin-4-amine (Enantiomer 1)] has an IC50 (CDK9/CycT1) greater than 20000 nM and an IC50 [1] of 3.42 nM.
Compound `CN(CC(C)(C)O)c1nc(NCc2nc3c(F)c(F)ccc3[nH]2)n2ncc(C3CC3)c2n1` [Example 292, 1-[(8-cyclopropyl-4-{[(4,5-difluoro-1H-benzimidazol-2-yl)methyl]amino}pyrazolo[1,5-a][1,3,5]triazin-2-yl)(methyl)amino]-2-methylpropan-2-ol] has an IC50 (CDK9/CycT1) greater than 6250 nM and an IC50 [1] of 2.8 nM.
In the case of `Fc1ccc2[nH]c(CNc3nc(N4CCOCC4)nc4c(C5CCC5)cnn34)nc2c1F` [Example 264, 8-cyclobutyl-N-[(4,5-difluoro-1H-benzimidazol-2-yl)methyl]-2-(morpholin-4-yl)pyrazolo[1,5-a][1,3,5]triazin-4-amine], the IC50 (CDK9/CycT1) is reported as greater than 20000 nM and the IC50 [1] is reported as 6.32 nM.
For `Fc1ccc2[nH]c(CNc3nc(N4CCOCC4)nc4c(Br)cnn34)nc2c1F` [Example 25, 8-bromo-N-[(4,5-difluoro-1H-benzimidazol-2-yl)methyl]-2-(morpholin-4-yl)pyrazolo[1,5-a][1,3,5]triazin-4-amine], the IC50 (CDK9/CycT1) was 5780 nM and the IC50 [1] was 3.01 nM.
In the case of `Fc1cc2nc(CNc3nc(N4CCOCC4)nc4c(C5CC5)cnn34)[nH]c2cc1F` [Example 318, 8-cyclopropyl-N-[(5,6-difluoro-1H-benzimidazol-2-yl)methyl]-2-(morpholin-4-yl)pyrazolo[1,5-a][1,3,5]triazin-4-amine], the IC50 (CDK9/CycT1) is reported as greater than 20000 nM and the IC50 [1] is reported as 0.97 nM.
In the case of `CN1CCN(c2nc(NCc3nc4c(F)cccc4[nH]3)n3ncc(C(F)(F)F)c3n2)CC1` [Example 293, N-[(4-fluoro-1H-benzimidazol-2-yl)methyl]-2-(4-methylpiperazin-1-yl)-8-(trifluoromethyl)pyrazolo[1,5-a][1,3,5]triazin-4-amine], the IC50 (CDK9/CycT1) is reported as greater than 20000 nM and the IC50 [1] is reported as 5.68 nM.
For `Brc1cnn2c(NCc3ncc(-c4ccccc4)[nH]3)nc(N3CCOCC3)nc12` [Example 23, 8-bromo-2-(morpholin-4-yl)-N-[(5-phenyl-1H-imidazol-2-yl)methyl]pyrazolo[1,5-a][1,3,5]triazin-4-amine], the IC50 (CDK9/CycT1) was 3240 nM and the IC50 [1] was 3.83 nM.
With `Brc1cnn2c(NCc3nc4ccccc4[nH]3)nc(N3CCC4(CCN4)CC3)nc12` [Example 291, N-[(1H-benzimidazol-2-yl)methyl]-8-bromo-2-(1,7-diazaspiro[3.5]nonan-7-yl)pyrazolo[1,5-a][1,3,5]triazin-4-amine] the IC50 (CDK9/CycT1) was greater than 20000 nM and the IC50 [1] was 15.3 nM.
`CN(CC(C)(C)O)c1nc(NCc2nc3cc(F)c(Cl)cc3[nH]2)n2ncc(C3CC3)c2n1` [Example 317, 1-[(4-{[(6-chloro-5-fluoro-1H-benzimidazol-2-yl)methyl]amino}-8-cyclopropylpyrazolo[1,5-a][1,3,5]triazin-2-yl)(methyl)amino]-2-methylpropan-2-ol] was tested, and the IC50 (CDK9/CycT1) was greater than 20000 nM and the IC50 [1] was 6.9 nM.
For `CN1CCN(c2nc(NCc3nc4cc(F)c(F)cc4[nH]3)n3ncc(C4CC4)c3n2)CC1` [Example 311, 8-cyclopropyl-N-[(5,6-difluoro-1H-benzimidazol-2-yl)methyl]-2-(4-methylpiperazin-1-yl)pyrazolo[1,5-a][1,3,5]triazin-4-amine], the IC50 (CDK9/CycT1) was greater than 20000 nM and the IC50 [1] was 3.42 nM.
For `CC1(N)CCN(c2nc(NCc3nc4ccccc4[nH]3)n3ncc(Br)c3n2)CC1` [Example 290, 2-(4-amino-4-methylpiperidin-1-yl)-N-[(1H-benzimidazol-2-yl)methyl]-8-bromopyrazolo[1,5-a][1,3,5]triazin-4-amine], the IC50 (CDK9/CycT1) was greater than 20000 nM and the IC50 [1] was 17.6 nM.
`C[C@@H]1CN(c2nc(NCc3nc4ccccc4[nH]3)n3ncc(C4CC4)c3n2)C[C@H](C)N1` [Example 248, N-[(1H-benzimidazol-2-yl)methyl]-8-cyclopropyl-2-[(3R,5S)-3,5-dimethylpiperazin-1-yl]pyrazolo[1,5-a][1,3,5]triazin-4-amine] gave an IC50 (CDK9/CycT1) greater than 20000 nM and an IC50 [1] of 1.6 nM.
